How the values were obtained:
[1] = test system: pro-form MMP-9; test: Western blot: pro-form MMP-9 expression in LPS-treated NR8383 cells; format: cell-based, rat; conditions: 0.01 μg/mL LPS; 6.25 to 50 μg/mL; 24 hours
Description: Rat alveolar macrophage NR8383 cells were divided into six groups and separately cultivated with the following media for 24 hours: • (1) Control group: a macrophage growth medium containing 0.01 μg/mL LPS; • (2) Positive control group: a macrophage growth medium containing 0.01 μg/mL LPS and 1 μM Dex; and • (3) Extract A group (including four sub-groups): a macrophage growth medium containing 0.01 μg/mL LPS and the extract A provided by [preparation example A-2-2], wherein the extract A is present in the four sub-groups at a concentration of 6.25, 12.5, 25 and 50 μg/mL respectively.
(§1) Thereafter, the proteins in the cells of each group were extracted and then subjected to a Western blot to measure the expression level of pro-form MMP-9 (i.e., the zymogen form of MMP-9), active-form MMP-9 and MMP-12. The relative expression level of pro-form MMP-9, active-form MMP-9 and MMP-12 of each group was calculated by using the results of the control group as a basis (i.e., the expression level of control group was served as 1-fold).
Rat alveolar macrophage NR8383 cells were divided into ten groups and separately cultivated with the following media for 24 hours:
(1) Control group: a macrophage growth medium containing 0.01 μg/mL LPS;
(2) Positive control group: a macrophage growth medium containing 0.01 μg/mL LPS and 1 μM Dex; […]

[2] = test system: Mucin 5AC; test: Western blot: LPS-induced expression of Mucin 5AC in NCI-H929 cells; format: cell-based, human; conditions: 1 μg/mL LPS, 24 hours, vs control group
Text: As indicated above, the hypersecretion of mucus in airway can be observed in the patients suffering from pulmonary injury-related diseases, such as chronic obstructive pulmonary disease and emphysema, and the mucus hypersecretion is associated with the overexpression of mucins in pulmonary tissue. Symptoms like the increased sputum production will occur in the patients suffering from the mucin hypersecretion in airway, and the increased sputum will accumulate in the airway and lung, thereby making the airway narrow and increasing respiratory resistance. To investigate the effects of active ingredients of FU-LING extract in regulating, preventing, and/or treating the pulmonary injury-related diseases, such as chronic obstructive pulmonary disease and emphysema, a Western blot was conducted to measure the inhibitory rate of active ingredients of FU-LING extract (tumulosic acid and poricoic acid A) on the LPS-induced expression of Mucin 5AC in human lung epithelial NCI-H929 cells.
Human lung epithelial NCI-H929 cells were divided into ten groups and separately cultivated with the following media for 24 hours:
(1) Control group: an epithelial cell growth medium containing […];
(2) Positive control group: an epithelial cell growth medium containing 1 μg/mL LPS and 10 μM Dex;
(3) TA group (including four sub-groups): an epithelial cell growth medium containing […] the tumulosic acid (TA) provided by [preparation example C-1], wherein the tumulosic acid (TA) is present in the four sub-groups at a concentration of 1.56, 3.13, 6.25 and 12.5 μg/mL respectively; and
(4) PAA group (including four sub-groups): an epithelial cell growth medium containing 1 μg/mL LPS the poricoic acid A (PAA) provided by [preparation example C-1], wherein the poricoic acid A (PAA) is present in the four sub-groups at a concentration of 6.25, 12.5, 25 and 50 μg/mL respectively.
as §1, with “Mucin 5AC.” for “pro-form MMP-9 (i.e., the zymogen form of MMP-9), active-form MMP-9 and MMP-12.”, “Mucin 5AC” for “pro-form MMP-9, active-form MMP-9 and MMP-12”

## C=C(CC[C@@H](C(=O)O)[C@H]1[C@H](O)C[C@@]2(C)C3=CC[C@@H](C(=C)C)[C@](C)(CCC(=O)O)C3=CC[C@]12C)C(C)C [PAA, poricoic acid A]
[1]
  Expression level of pro-form MMP-9 in comparison with the control group (in words): effective in inhibiting
[2]; 6.25 μg/mL (low-dose)
  Inhibitory rate on LPS-induced expression of Mucin 5AC: up to 63%
[2]; 50 μg/mL (high-dose)
  Inhibitory rate on LPS-induced expression of Mucin 5AC: ≤ 87%

Source: patent publication US10973863B2, “Method for regulating, preventing and/or treating pulmonary injury” (SINPHAR PHARMACEUTICAL CO., LTD., priority 2017, dated 2021)
